What was measured:
HRMEC = assay: Endothelial assembly into capillary-like structures (HRMEC); type: cell-based, human; conditions: HRMEC on Matrigel, two dimensional in vitro assay, 8 h
Description: Endothelial assembly into capillary-like structures. Twelve well plates (Falcon) were coated with thin layers of Matrigel. HRMEC were plated at a density of 4×10^4 cells/well in DME containing 1% fetal bovine serum. Indicated agonists, control peptides, alone, or in combination with the EphB1/Fc antagonist (1000 ng ml^−1) (FIG. 5) were added at the time of plating. Cells were incubated at 37° C. for 8 h and photographed using phase microscopy (magnification 100×) (Diaphot-TMD, Nikon).

[1] = test system: human renal microvascular endothelial cells; assay: Solid phase cell attachment assay (HRMEC); type: cell-based
Description: Solid phase cell attachment assays. Forty-eight-well plates (Falcon) were coated with a layer of nitrocellulose (Schleicher & Schuell) and allowed to air dry as described (47). Coated wells were incubated overnight at 4° C. with PBS containing matrix proteins at the indicated concentrations alone (no addition, NA) or in combination with dimeric EphrinB1/Fc. Two hours prior to assay, wells were washed twice then blocked at 37° C. with 1% BSA. Serum starved cells were harvested in 2 mM EDTA in PBS (HEK293) or recovered by trypsinization (HRMEC), washed twice in serum free medium containing 1% BSA, then plated at a density of 0.7-1×10^5 cells per well. After incubation at 37° C. for 1 hour (or as specified), unattached cells were dislodged by 5 brisk slaps of the plate on a horizontal surface. Wells were gently washed with PBS until cells were […] to albumin-coated wells. Adherent cells were fixed with 2% glutaraldehyde, stained with 0.5% crystal violet (in EtOH), and quantified by OD reading at 570 nm. In experiments using competitive peptides or blocking antibodies, cells were preincubated with the indicated peptides (100 μM) or antibodies (10 μg/ml) for 15 min at RT before plating. Results representative of three independent experiments are given as OD values and represent the mean of duplicate or triplicate wells±SEM. […]

In the case of `CCCCCCCCCCCCCC(=O)O[C@@H]1[C@@H](C)[C@@]2(O)[C@@H](C=C(CO)C[C@]3(O)C(=O)C(C)=C[C@@H]23)[C@@H]2C(C)(C)[C@]12OC(C)=O` [phorbol myristate acetate, reference compound], the endothelial capillary-like assembly (HRMEC) is reported as “stimulated”.

With “GRGDSPK [RGD peptide, reference compound]” the “support of the ephrin-B1 induced increase in endothelial attachment” value ([1]; peptide-coated 48-well plates) was “sufficient”.

fibrinogen [reference compound] was tested, and the “threshold surface density of adsorbed matrix protein required to promote attachment” value ([1]; nitrocellulose surface) was “approximately 1 ug/cm^2”.
